This note sets out measurements from patent US11266692B2, “Intracellular genomic transplant and methods of therapy” (Regents of the University of Minnesota, priority 2015, dated 2022).

Common to all, as to test: Validation of gRNAs: Cas9/gRNA plasmids in HEK293T, Surveyor digest, gel densitometry
What all share (format): cell-based, human

In one data set the test system is PD1. The note with it: PD1 gene site, 3 days. As for the experimental part:
(§1) HEK293T cells were plated out at a density of 1×10^5 cells per well in a 24 well plate. 150 uL of Opti-MEM medium was combined with 1.5 ug of gRNA plasmid, 1.5 ug of Cas9 plasmid. Another 150 uL of Opti-MEM medium was combined with 5 ul of Lipofectamine 2000 Transfection reagent (Invitrogen). The solutions were combined together and incubated for 15 minutes at room temperature. The DNA-lipid complex was added dropwise to wells of the 24 well plate. Cells were incubated for 3 days at 37° C. and genomic DNA was collected using the GeneJET Genomic DNA Purification Kit (Thermo Scientific). Activity of the gRNAs was quantified by a Surveyor Digest, gel electrophoresis, and densitometry (FIG. 60 and FIG. 61) (Guschin, D. Y., et al., “A Rapid and General Assay for Monitoring Endogenous Gene Modification,” Methods in Molecular Biology, 649: 247-256 (2010)).
(§2) The percentage numbers in Table 7 indicated the percent of gene modifications in the sample.

For another data set, the system named is CTLA4. The settings on record: CTLA4 gene site, 3 days. As for the experimental part: as §1
(§3) The efficiencies of Cas9 in creating double strand break (DSB) with the assistance of different gRNA sequences were listed in Table 7. The percentage numbers in Table 7 indicated the percent of gene modifications in the sample.

A further data set concerns HPRT. The note with it: HPRT gene site, 3 days. On the procedure: as §1, §3
The next data set concerns AAVS1. The note with it: AAVS1 gene site, 3 days. As for the experimental part: as §1, §2
A further data set relates to CCR5. The settings on record: CCR5 gene site, 3 days. As for the experimental part:
as §1, §3

For “PD1 gRNA#6: guide RNA to PD-1; sense primer SEQ ID 43 CACCGACGGAAGCGGCAGTCCTGGC”, the “efficiency of Cas9/gRNA pair in creating double strand break (DSB), percent of gene modifications” value in the data set with PD1 was determined as 25.91%.

Regarding “CTLA4 gRNA#6: guide RNA to CTLA4; sense primer SEQ ID 57 CACCGCTGGCGATGCCTCGGCTGC”, the “efficiency of Cas9/gRNA pair in creating double strand break (DSB), percent of gene modifications” value with CTLA4 is on record as 36.93%.

Turning to “PD1 gRNA#5: guide RNA to PD-1; sense primer SEQ ID 41 CACCGCGTTGGGCAGTTGTGTGACA”, the “efficiency of Cas9/gRNA pair in creating double strand break (DSB), percent of gene modifications” value in the data set on PD1 is 30.60%.

Regarding “HPRT gRNA#1: guide RNA to HPRT; sense primer SEQ ID 5 CACCGCACGTGTGAACCAACCCGCC”, the “efficiency of Cas9/gRNA pair in creating double strand break (DSB), percent of gene modifications” value in the data set with HPRT was 27.85% ^.

Consider “AAVS1 gRNA#5: guide RNA to AAVS1; sense primer SEQ ID 27 CACCGCCGGCCCTGGGAATATAAGG”, for which the “efficiency of Cas9/gRNA pair in creating double strand break (DSB), percent of gene modifications” value with AAVS1 came to 27.55%.

As to “CTLA4 gRNA#3: guide RNA to CTLA4; sense primer SEQ ID 51 CACCGCTAGATGATTCCATCTGCAC”, the “efficiency of Cas9/gRNA pair in creating double strand break (DSB), percent of gene modifications” value in the data set on CTLA4 was 39.33%.

Take “CTLA4 gRNA#2: guide RNA to CTLA4; sense primer SEQ ID 49 CACCGTGCGGCAACCTACATGATG”: in the data set on CTLA4, the “efficiency of Cas9/gRNA pair in creating double strand break (DSB), percent of gene modifications” value was 56.10%.

As to “HPRT gRNA#4: guide RNA to HPRT; sense primer SEQ ID 11 CACCGTAAATTTCTCTGATAGACTA”, the “efficiency of Cas9/gRNA pair in creating double strand break (DSB), percent of gene modifications” value with HPRT is given as under 5%.

For “CCR5 gRNA#4: guide RNA to CCR5; sense primer SEQ ID 67 CACCGACACAGCATGGACGACAGCC”, the “efficiency of Cas9/gRNA pair in creating double strand break (DSB), percent of gene modifications” value in the data set on CCR5 is given as 45.99%.

For the substance “HPRT gRNA#3: guide RNA to HPRT; sense primer SEQ ID 9 CACCGACAAAAAAATTAGCCGGGTG”, the “efficiency of Cas9/gRNA pair in creating double strand break (DSB), percent of gene modifications” value with HPRT is listed as under 1%.

“HPRT gRNA#6: guide RNA to HPRT; sense primer SEQ ID 15 CACCGGTCTCGAACTCCTGAGCTC”: the “efficiency of Cas9/gRNA pair in creating double strand break (DSB), percent of gene modifications” value with HPRT was under 5%.

Take “PD1 gRNA#1: guide RNA to PD-1; sense primer SEQ ID 33 CACCGCGGAGAGCTTCGTGCTAAAC”: the “efficiency of Cas9/gRNA pair in creating double strand break (DSB), percent of gene modifications” value in the data set with PD1 was 10.83%.

As to “CTLA4 gRNA#5: guide RNA to CTLA4; sense primer SEQ ID 55 CACCGCCGCACAGACTTCAGTCACC”, in the data set on CTLA4, the “efficiency of Cas9/gRNA pair in creating double strand break (DSB), percent of gene modifications” value stood at 15.90%.

For the substance “CCR5 gRNA#1: guide RNA to CCR5; sense primer SEQ ID 61 CACCGACAATGTGTCAACTCTTGAC”, in the data set on CCR5, the “efficiency of Cas9/gRNA pair in creating double strand break (DSB), percent of gene modifications” value worked out at 21.47%.

On to “CCR5 gRNA#6: guide RNA to CCR5; sense primer SEQ ID 71 CACCGTTGTATTTCCAAAGTCCCAC”, for which the “efficiency of Cas9/gRNA pair in creating double strand break (DSB), percent of gene modifications” value in the data set on CCR5 turned out to be 33.17%.

Turning to “CCR5 gRNA#5: guide RNA to CCR5; sense primer SEQ ID 69 CACCGATCTGGTAAAGATGATTCC”, in the data set with CCR5, the “efficiency of Cas9/gRNA pair in creating double strand break (DSB), percent of gene modifications” value stood at 36.07%.

As for “HPRT gRNA#2: guide RNA to HPRT; sense primer SEQ ID 7 CACCGAAACAACAGGCCGGGCGGGT”, in the data set on HPRT, the “efficiency of Cas9/gRNA pair in creating double strand break (DSB), percent of gene modifications” value is 30.04% ^.

As for “CTLA4 gRNA#4: guide RNA to CTLA4; sense primer SEQ ID 53 CACCGAGGTTCACTTGATTTCCAC”, in the data set on CTLA4, the “efficiency of Cas9/gRNA pair in creating double strand break (DSB), percent of gene modifications” value turned out to be 40.13%.

Turning to “AAVS1 gRNA#2: guide RNA to AAVS1; sense primer SEQ ID 21 CACCGACCCCACAGTGGGGCCACTA”, the “efficiency of Cas9/gRNA pair in creating double strand break (DSB), percent of gene modifications” value in the data set on AAVS1 is given as 27.10%.

On to “AAVS1 gRNA#6: guide RNA to AAVS1; sense primer SEQ ID 29 CACCGCGGGCCCCTATGTCCACTTC”, for which the “efficiency of Cas9/gRNA pair in creating double strand break (DSB), percent of gene modifications” value with AAVS1 was 39.62%.

As to “PD1 gRNA#4: guide RNA to PD-1; sense primer SEQ ID 39 CACCGAGGCGGCCAGCTTGTCCGTC”, the “efficiency of Cas9/gRNA pair in creating double strand break (DSB), percent of gene modifications” value with PD1 came to 20.87%.

In the case of “CTLA4 gRNA#1: guide RNA to CTLA4; sense primer SEQ ID 47 CACCGCCGGGTGACAGTGCTTCGGC”, in the data set with CTLA4, the “efficiency of Cas9/gRNA pair in creating double strand break (DSB), percent of gene modifications” value was determined as 40.96%.

Turning to “PD1 gRNA#2: guide RNA to PD-1; sense primer SEQ ID 35 CACCGCCTGCTCGTGGTGACCGAAG”, in the data set on PD1, the “efficiency of Cas9/gRNA pair in creating double strand break (DSB), percent of gene modifications” value was over 60%.

With “HPRT gRNA#5: guide RNA to HPRT; sense primer SEQ ID 13 CACCGTGTTTCAATGAGAGCATTAC”, the “efficiency of Cas9/gRNA pair in creating double strand break (DSB), percent of gene modifications” value with HPRT is under 1%.

For “AAVS1 gRNA#1: guide RNA to AAVS1; sense primer SEQ ID 19 CACCGTGGGGGTTAGACCCAATATC”, the “efficiency of Cas9/gRNA pair in creating double strand break (DSB), percent of gene modifications” value in the data set with AAVS1 is reported as 32.99%.

Take “CCR5 gRNA#2: guide RNA to CCR5; sense primer SEQ ID 63 CACCGTCATCCTCCTGACAATCGAT”: in the data set on CCR5, the “efficiency of Cas9/gRNA pair in creating double strand break (DSB), percent of gene modifications” value is over 60%.

For “CCR5 gRNA#3: guide RNA to CCR5; sense primer SEQ ID 65 CACCGGTGACAAGTGTGATCACTT”, the “efficiency of Cas9/gRNA pair in creating double strand break (DSB), percent of gene modifications” value in the data set with CCR5 was found to be 55.98%.
